From article PMC6290556, “1,4-Disubstituted Thiosemicarbazide Derivatives are Potent Inhibitors of Toxoplasma gondii Proliferation” (Molecules, 2014)
≈ marks a conversion by molar mass, not a printed value. Like-named read-outs stand apart in the source and are kept apart here.

Columns and labels:
[1] = tested on: T. gondii RH strain tachyzoites; assay: [3H]uracil incorporation assay of T. gondii proliferation in L929 host cells; type: cell-based, Toxoplasma gondii; details: assay A [3H]uracil incorporation, vs untreated blank
Protocol: In the next step of our studies, the prepared 1,4-disubstituted thiosemicarbazides (series 1–3) were used to assess the inhibition of T. gondii growth in vitro. For this purpose, intracellular parasites (tachyzoites) of RH strain were incubated with different concentrations of the thiosemicarbazides ranging from 1 to 100 µg/mL. Inhibition of the parasite growth was monitored by measuring the specific incorporation of [^3H]uracil in the parasite’s nucleic acids.
The tachyzoites of T. gondii strain RH – intraspecies type I (ATCC_ Number 50174™) were maintained through passages on female C57BL/6 (H-2^b) and BALB/c (H-2^d) mice with genetically determined high and low susceptibility (respectively) to T. gondii infection (10–12 weeks old). Tachyzoites washed out from the peritoneum cavity were once expanded in vitro on L929 cells.
L929, (2 × 10^4 cells/100 µL/well) were grown in complete medium (IMDM) on 96-well plates. After 24 h incubation, a medium was removed and then T. gondii RH tachyzoites, suspended in culture medium supplemented with 1.0, 5.0, 10.0, 50.0 and 100.0 μg/mL 1,4-disubstituted thiosemicarbazides (1g, 2b, 2m, 3d, 3l) and as a control-sulfadiazine, were added (2 × 10^5 tachyzoites/200 µL/well) to the cell monolayers. After subsequent 48 h incubation 1 µCi/well of [^3H] uracil (Moravek Biochemicals Inc., Brea, CA, USA) was applied to each microculture for further 18–20 h. The amount of the isotope incorporated into the parasite nucleic acid pool, corresponding to the parasite growth, was measured by liquid scintillation counting with 1450 Microbeta Plus Liquid Scintillation Counter (Wallac Oy, Turku, Finland).

T. gondii RH strain = assay: quantitative real-time PCR (B1 gene) of T. gondii in infected L929 cells; type: cell-based, Toxoplasma gondii; details: assay B qRT-PCR, L929 host cells
Protocol: T. gondii genomic DNA was isolated from the tachyzoites of RH strain with Wizard® SV Genomic DNA Purification System (Promega, Madison, WI, USA) according to the manufacturer’s instruction. The DNA concentration and purity were measured using a NanoPhotometer (Implen, München, Germany), while the integrity of the extracted DNA was tested using an ethidium bromide-stained agarose gel. DNA was used for the detection and quantitationof T. gondii in analyzed samples and it was stored at −20 °C until use.
A quantitative real-time PCR (qRT-PCR) assay, targeting B1 gene was performed to detect and to quantitate T. gondii in analyzed samples (1g, 2b, 2m, 3d, 3l and sulphadiazine) according to the modified protocol of Wahab et al.. […] Amplification was carried out on a 7900HT real-time PCR system (Applied Biosystems, Carlsbad, CA, USA). The reaction mixtures (25 µL) consisted of 1x TaqMan PCR master mix supplemented with ROX (Applied Biosystems), 300 nM probe, 900 nM of each primer and 2 µL of template DNA. For quantification a standard curve was constructed using 10-fold serial dilutions of DNA extracted from a known number of T. gondii. The cycling parameters were: 50 °C for 2 min, initial activation at 95 °C for 10 min, and 45 two-step cycles of 95 °C for 15 s and 60 °C for 1 min. All samples were analyzed in triplicate.

[2] = MTT cell viability assay (ISO 10993-5); type: cell-based, mouse; details: mouse, 24 h, ± SD
Protocol: (§1) Cell line L929 (ATTC® Catalog No. […] The MTT assay was used according to international standards: ISO 10993-5:2009(E), Biological evaluation of medical devices, Part 5: Tests for in vitro cytotoxicity. […] Then, 1 mg/mL MTT (50 μL/well) was added to each well and incubated at 37 °C, 10% CO2 for 2 h. Mitochondrial dehydrogenases of viable cells reduced the yellowish water-soluble MTT to water-insoluble formazan crystals, which were solubilized with dimethyl sulfoxide (DMSO). The cell culture medium was aspirated cautiously, after which 150 μL DMSO was added to each well and mixed thoroughly. Optical density (OD) was read on the ELISA reader (Multiskan EX, Labsystems, Vienna, VA, USA) at 550 nm. […] All experiments were performed in triplicate.

L929 cells = assay: MTT cell viability assay (ISO 10993-5); type: cell-based, mouse; details: L929 cells
Protocol: as §1

[3] = tested on: T. gondii RH strain tachyzoites; assay: [3H]uracil incorporation assay of T. gondii proliferation in L929 host cells; type: cell-based; details: Toxoplasma gondii, L929, read-out: IC50 (50% of T. gondii proliferation inhibition in vitro)
[4] = tested on: Gram-positive bacterial species and clinical isolates of Staphylococcus aureus; parameters: method as in PMID 23428849; details: all test microorganisms; cited from earlier work
[5] = target: bacterial topoisomerase IV; parameters: method as in PMID 21080016; details: cited from earlier work
infected cells = tested on: infected cells; parameters: method as in PMID 20541294; details: read-out: LC50 for infected cells; cited from earlier work
[6] = tested on: Gram-positive and Gram-negative bacterial strains; assay: antibacterial assay (disc diffusion / agar dilution); type: cell-based; details: even at high concentrations
Text: The following microorganisms were used in this study: Staphylococcus aureus (ATCC 25923, ATCC 6538, ATCC 29213, NCTC 4163), Staphylococcus epidermidis ATCC 12228, Bacillus subtilis ATCC 6633, Bacillus cereus ATCC 11778, Micrococcus luteus (ATCC 9341, ATCC 10240), Escherichia coli (ATCC 10538, ATCC 25922, NCTC 8196), […] NCTC 4635, Pseudomonas aeruginosa (ATCC 15442, ATCC 27853, NCTC 6749), and Bordetella bronchiseptica ATCC 4617. Initially, antibacterial activity of thiosemicarbazide derivatives was screened on the basis of growth inhibition zone (giz) utilizing the disc diffusion method, according to the Clinical and Laboratory Standards Institute guidelines. For compounds showing the inhibitory effect on the growth of tested bacteria, monitored as an appearance of giz, the minimal inhibitory concentrations (MICs) were determined using agar dilution method, according to the Clinical and Laboratory Standards Institute guidelines. The minimal inhibitory concentrations (MICs) were defined as the lowest concentration of the compound preventing growth of the tested microorganism. In both methods, recommended Mueller-Hinton II agar medium (Becton Dickinson, Heidelberg, Germany) was used. Solutions containing the tested agents were prepared in methanol or DMSO. Ciprofloxacin was used as control antimicrobial agent.

DNA gyrase = target: T1, DNA gyrase (Staphylococcus aureus, UniProt P0A0K8+P20831); assay: S. aureus gyrase supercoiling assay; type: biochemical
T1 construct: purchased Inspiralis
T1 sequence (P0A0K8 whole entry): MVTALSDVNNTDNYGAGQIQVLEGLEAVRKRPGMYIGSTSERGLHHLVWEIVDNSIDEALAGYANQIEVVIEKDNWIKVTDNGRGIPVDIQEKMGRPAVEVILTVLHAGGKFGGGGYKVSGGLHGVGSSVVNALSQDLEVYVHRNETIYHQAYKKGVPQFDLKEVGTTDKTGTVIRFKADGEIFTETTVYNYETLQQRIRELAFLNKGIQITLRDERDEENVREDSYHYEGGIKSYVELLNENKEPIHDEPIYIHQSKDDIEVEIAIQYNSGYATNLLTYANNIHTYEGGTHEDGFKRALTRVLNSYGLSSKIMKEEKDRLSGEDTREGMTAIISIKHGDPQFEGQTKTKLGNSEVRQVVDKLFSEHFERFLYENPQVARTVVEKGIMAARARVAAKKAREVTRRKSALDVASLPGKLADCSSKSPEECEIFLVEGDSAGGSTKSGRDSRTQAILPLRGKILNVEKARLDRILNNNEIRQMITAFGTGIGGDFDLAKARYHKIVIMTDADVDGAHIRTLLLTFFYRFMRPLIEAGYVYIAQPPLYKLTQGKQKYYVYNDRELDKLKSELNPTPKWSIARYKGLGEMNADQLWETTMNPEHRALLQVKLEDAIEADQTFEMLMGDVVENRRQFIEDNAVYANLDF
T1 sequence (P20831 whole entry): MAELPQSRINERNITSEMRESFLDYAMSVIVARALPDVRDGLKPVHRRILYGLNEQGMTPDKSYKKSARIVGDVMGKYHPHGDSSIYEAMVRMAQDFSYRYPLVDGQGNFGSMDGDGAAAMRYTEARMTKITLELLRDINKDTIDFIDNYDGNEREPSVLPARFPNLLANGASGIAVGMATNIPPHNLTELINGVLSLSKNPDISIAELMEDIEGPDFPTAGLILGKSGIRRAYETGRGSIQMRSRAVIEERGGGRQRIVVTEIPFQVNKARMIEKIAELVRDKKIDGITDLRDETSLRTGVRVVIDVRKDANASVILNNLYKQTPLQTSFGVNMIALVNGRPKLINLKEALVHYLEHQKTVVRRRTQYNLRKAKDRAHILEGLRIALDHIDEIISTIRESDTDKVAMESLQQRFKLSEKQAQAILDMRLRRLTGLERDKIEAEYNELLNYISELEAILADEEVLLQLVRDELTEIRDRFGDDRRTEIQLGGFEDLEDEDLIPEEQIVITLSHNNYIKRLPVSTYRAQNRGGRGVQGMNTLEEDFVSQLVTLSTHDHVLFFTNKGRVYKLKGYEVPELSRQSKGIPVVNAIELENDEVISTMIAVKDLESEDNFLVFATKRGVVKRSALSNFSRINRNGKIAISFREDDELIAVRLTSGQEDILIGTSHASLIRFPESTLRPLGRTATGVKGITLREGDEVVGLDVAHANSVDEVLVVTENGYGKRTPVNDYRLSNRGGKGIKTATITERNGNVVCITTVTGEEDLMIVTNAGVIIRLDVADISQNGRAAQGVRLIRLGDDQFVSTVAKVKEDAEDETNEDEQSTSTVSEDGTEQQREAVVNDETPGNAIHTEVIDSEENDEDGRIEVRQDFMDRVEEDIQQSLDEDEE
Protocol: The assays were performed using S. aureus Gyrase Supercoiling Assay Kits (Inspiralis, Norwich, UK). Briefly, […] pBR322 plasmid DNA ([…]) was incubated with 1 unit of gyrase, in the dedicated supercoiling assay buffer supplied by the manufacturer, in the presence of varying concentrations of the compounds tested. Reactions were carried out at 37 °C for 1 h and then terminated by the addition of equal volume of 2 × STOP Buffer (40% sucrose, 100 mM Tris-Cl pH 7.5, 1 mM EDTA, and 0.5 mg/mL bromophenol blue) and chloroform/isoamyl alcohol. Samples were vortexed, centrifuged and run through a 15 cm 1% agarose gel in TAE buffer (40 mM Trisacetate, 2 mM EDTA) for 3 h at 50 V. Gels were stained with ethidium bromide and visualized under UV light.

topoisomerase IV = target: T2, topoisomerase IV (Staphylococcus aureus, UniProt P0C1S7+P0C1U9); assay: S. aureus topoisomerase IV decatenation assay; type: biochemical
T2 construct: purchased Inspiralis
T2 sequence (P0C1U9 whole entry): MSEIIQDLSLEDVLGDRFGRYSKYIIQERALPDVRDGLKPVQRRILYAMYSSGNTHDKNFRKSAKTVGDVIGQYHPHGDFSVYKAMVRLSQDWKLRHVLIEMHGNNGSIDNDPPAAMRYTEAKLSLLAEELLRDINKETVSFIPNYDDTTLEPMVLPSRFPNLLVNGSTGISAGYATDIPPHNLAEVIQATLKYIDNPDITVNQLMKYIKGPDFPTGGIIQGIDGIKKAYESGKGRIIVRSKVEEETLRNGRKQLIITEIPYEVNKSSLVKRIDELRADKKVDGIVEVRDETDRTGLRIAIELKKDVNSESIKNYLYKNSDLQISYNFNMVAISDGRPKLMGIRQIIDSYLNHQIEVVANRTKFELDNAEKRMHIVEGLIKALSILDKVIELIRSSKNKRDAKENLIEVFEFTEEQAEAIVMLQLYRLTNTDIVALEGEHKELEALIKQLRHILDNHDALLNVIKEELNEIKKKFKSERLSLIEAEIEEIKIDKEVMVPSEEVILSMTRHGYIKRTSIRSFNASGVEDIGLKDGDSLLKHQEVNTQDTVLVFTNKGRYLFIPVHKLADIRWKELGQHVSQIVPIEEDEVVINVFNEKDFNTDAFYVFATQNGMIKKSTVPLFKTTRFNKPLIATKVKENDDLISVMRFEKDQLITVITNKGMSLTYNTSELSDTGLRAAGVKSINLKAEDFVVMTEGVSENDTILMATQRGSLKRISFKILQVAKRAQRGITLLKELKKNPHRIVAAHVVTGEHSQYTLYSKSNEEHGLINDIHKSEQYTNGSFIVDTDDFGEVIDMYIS
T2 sequence (P0C1S7 whole entry): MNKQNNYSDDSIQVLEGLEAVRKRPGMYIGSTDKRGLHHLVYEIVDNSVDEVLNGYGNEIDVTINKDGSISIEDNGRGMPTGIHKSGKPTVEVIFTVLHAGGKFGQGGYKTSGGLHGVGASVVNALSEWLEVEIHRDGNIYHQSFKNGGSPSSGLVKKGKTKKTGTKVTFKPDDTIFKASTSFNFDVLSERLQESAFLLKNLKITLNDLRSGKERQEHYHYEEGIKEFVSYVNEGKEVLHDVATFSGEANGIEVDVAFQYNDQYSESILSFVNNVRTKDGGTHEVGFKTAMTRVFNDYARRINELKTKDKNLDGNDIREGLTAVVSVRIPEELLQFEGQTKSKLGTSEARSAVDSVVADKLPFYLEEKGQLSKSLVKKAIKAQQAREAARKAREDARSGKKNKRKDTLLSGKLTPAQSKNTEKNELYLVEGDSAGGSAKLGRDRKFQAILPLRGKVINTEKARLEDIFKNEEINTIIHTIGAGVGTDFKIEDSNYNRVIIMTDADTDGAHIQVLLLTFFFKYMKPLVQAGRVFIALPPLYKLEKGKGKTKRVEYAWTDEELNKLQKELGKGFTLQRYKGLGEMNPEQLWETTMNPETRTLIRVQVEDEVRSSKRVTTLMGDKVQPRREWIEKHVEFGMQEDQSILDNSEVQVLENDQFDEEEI
Protocol: The assays were performed using S. aureus topoisomerase IV decatenation kits (Inspiralis). Interlinked kDNA substrate ([…]) was incubated with 1 unit of topoisomerase IV (Inspiralis), in the dedicated decatenation assay buffer supplied by the manufacturer, in the presence of varying concentrations of the compounds tested. Reactions were carried out at 37 °C for 1 h and then terminated by the addition of equal volume of 2× STOP Buffer (40% sucrose, 100 mM Tris-Cl pH 7.5, 1 mM EDTA, 0.5 mg/mL bromophenol blue) and chloroform/isoamyl alcohol. Samples were vortexed, centrifuged and run through a 15 cm 1% agarose gel in TAE buffer for 1.5 h at 80 V. Gels were stained with ethidium bromide and visualized under UV light. The concentrations of the inhibitor that prevented 50% of the kinetoplast DNA from being converted into decatenated minicircles (IC50 values) were determined by plotting the results obtained from the densytometric analyses of the gel images using Quantity One software (BioRad, Hercules, CA, USA).

[7] = read-out: viability of L929 cells

SMILES: Cc1nnsc1C(=O)NNC(=S)Nc1ccc(F)cc1F [Compound 3l]
- intensity of T. gondii proliferation ([1]; 1 µg/mL): 84.59 ± 16.61%
- intensity of T. gondii proliferation ([1]; 5 µg/mL): 85.76 ± 19.71%
- intensity of T. gondii proliferation ([1]; 10 µg/mL): 103.21 ± 19.27%
- intensity of T. gondii proliferation ([1]; 50 µg/mL): 88.34 ± 14.40 %
- intensity of T. gondii proliferation ([1]; 100 µg/mL): 37.20 ± 7.47 %
- intensity of T. gondii proliferation (T. gondii RH strain; 50 µg/mL): 89.32 ± 15.74 %
- intensity of T. gondii proliferation (T. gondii RH strain; 100 µg/mL): 14.08 ± 3.35 %
- viability at 24 h, 1 µg/mL ([2]; L929 mouse fibroblast cells): 96.54 ± 0.69%
- viability at 24 h, 5 µg/mL ([2]; L929 mouse fibroblast cells): 92.87 ± 0.23%
- viability at 24 h, 10 µg/mL ([2]; L929 mouse fibroblast cells): 95.89 ± 0.39%
- viability at 24 h, 50 µg/mL ([2]; L929 mouse fibroblast cells): 99 ± 10%
- viability at 24 h, 100 µg/mL ([2]; L929 mouse fibroblast cells): 89.5 ± 3.44%
- viability at 24 h, 500 µg/mL ([2]; L929 mouse fibroblast cells): 48 ± 10.1%
- CC30 (concentration required for 30% proliferation inhibition in vitro) (L929 cells): 285.52 µg/mL
- IC50 [3]: 92.3 µg/mL (≈ 280 µM)
- antibacterial screening [4]: ineffective

SMILES: O=C(NC(=S)NNC(=O)c1cc2ccccc2[nH]1)c1ccccc1 [4-benzoyl-1-(indol-2-yl)carbonyl-thiosemicarbazide]
- IC50 [5]: 14 µg/mL (≈ 41.4 µM)

SMILES: NC(=O)NO [hydroxyurea]
- CC50 (infected cells): > 10 mM

SMILES: Cc1nc[nH]c1C(=O)NNC(=S)NC(=O)c1ccccc1 [4-benzoyl-1-(4-methyl-imidazol-5-yl)carbonylthiosemicarbazide]
- IC50 [5]: 90 µg/mL (≈ 297 µM)

SMILES: O=C(NNC(=S)Nc1ccc(F)cc1)c1cccs1 [Compound 1g, 4-(4-fluorophenyl)-1-(thiophen-2-yl)carbonylthiosemicarbazide]
- intensity of T. gondii proliferation ([1]; 1 µg/mL): 96.14 ± 14.54%
- intensity of T. gondii proliferation ([1]; 5 µg/mL): 74.94 ± 7.00 %
- intensity of T. gondii proliferation ([1]; 10 µg/mL): 44.71 ± 16.60 %
- intensity of T. gondii proliferation ([1]; 50 µg/mL): 12.62 ± 4.78 %
- intensity of T. gondii proliferation (T. gondii RH strain; 10 µg/mL): 61.01 ± 11.23 %
- intensity of T. gondii proliferation (T. gondii RH strain; 50 µg/mL): 5.00 ± 2.56 %
- viability at 24 h, 1 µg/mL [2, 7]: 103 ± 2.69%
- viability at 24 h, 5 µg/mL [2, 7]: 99.5 ± 5.16%
- viability at 24 h, 10 µg/mL [2, 7]: 97.3 ± 4.98%
- viability at 24 h, 50 µg/mL [2, 7]: 79 ± 2.89%
- viability at 24 h, 100 µg/mL [2, 7]: 67 ± 11.4%
- viability at 24 h, 500 µg/mL [2, 7]: 39.8 ± 5.83%
- growth-inhibiting effect on bacterial strains [6]: no growth-inhibiting effect
- inhibitory effect on DNA gyrase (DNA gyrase): No inhibitory effect
- inhibitory effect on topoisomerase IV (topoisomerase IV): No inhibitory effect
- IC50 [3]: 33.2 µg/mL (≈ 112 µM)

SMILES: Nc1ccc(S(=O)(=O)Nc2ncccn2)cc1 [sulfadiazine, reference compound]
- intensity of T. gondii proliferation (T. gondii RH strain; 100 µg/mL): 63.99 ± 10.58 %
- IC50 [3]: > 500 µg/mL
- CC50 (infected cells): > 10 mM

SMILES: Cc1nnsc1C(=O)NNC(=S)Nc1ccccc1Br [Compound 3d]
- intensity of T. gondii proliferation ([1]; 1 µg/mL): 90.03 ± 14.61%
- intensity of T. gondii proliferation ([1]; 5 µg/mL): 84.64 ± 15.68%
- intensity of T. gondii proliferation ([1]; 10 µg/mL): 83.84 ± 19.01%
- intensity of T. gondii proliferation ([1]; 50 µg/mL): 63.82 ± 5.32 %
- intensity of T. gondii proliferation ([1]; 100 µg/mL): 36.52 ± 5.16 %
- intensity of T. gondii proliferation (T. gondii RH strain; 50 µg/mL): 75.13 ± 10.10 %
- intensity of T. gondii proliferation (T. gondii RH strain; 100 µg/mL): 25.56 ± 6.32 %
- viability at 24 h, 1 µg/mL ([2]; L929 mouse fibroblast cells): 102 ± 3.89%
- viability at 24 h, 5 µg/mL ([2]; L929 mouse fibroblast cells): 99.14 ± 0.82%
- viability at 24 h, 10 µg/mL ([2]; L929 mouse fibroblast cells): 97.5 ± 5.98%
- viability at 24 h, 50 µg/mL ([2]; L929 mouse fibroblast cells): 90.9 ± 6.71%
- viability at 24 h, 100 µg/mL ([2]; L929 mouse fibroblast cells): 79.5 ± 5.82%
- viability at 24 h, 500 µg/mL ([2]; L929 mouse fibroblast cells): 41.5 ± 5.16%
- CC30 (concentration required for 30% proliferation inhibition in vitro) (L929 cells): 242.56 µg/mL
- IC50 [3]: 74.9 µg/mL (≈ 201 µM)
- antibacterial screening [4]: ineffective
